Laboratory results reported in US20240124510A1, “Cyclic Glycoaminoacid Derivatives” (TFCHEM, priority 2021, published 2024).
Several values for one entry are separate records, joined by “and”; a condition that tells them apart may be missing. Identical values can stand only once.

Assays:
[1] = test system: Collagen I fibers; test: Quantity of Collagen 1 fibers produced by preadipocytes in inflammatory condition (immunofluorescence); assay type: cell-based, human; conditions: for Collagen I fibers quantity, Mean (%) / Collagen I fibers quantity, Values (%): inflammatory condition, normalized by cells number (Dapi); for Collagen I fibers quantity, Values (%): individual values; for Collagen I fibers quantity compared to the AcMC control condition fixed at 100%: preadipocytes
Method: Preadipocytes have been isolated from human female hypodermis (body mass index <30 kg/m2 and <45 years old). Preadipocytes have been cultured for 24 h in 100 μl of DMEM-10% Fetal Bovine Serum (FBS) in 96-well plates. Then cells were treated to induce their differentiation in a classical or an inflammatory environment for 13 days.
To induce the preadipocytes differentiation cells were incubated in a proadipogenic cocktail (PAC) including insulin, glucocorticoid, 3-isobutyl-1-methylxanthine (IBMX), and thiazolinedione in DMEM.
To induce a fibro-inflammatory environment, cells were treated with an activated human macrophage-conditioned medium (AcMC) prepared in RPMI medium. A treatment with Dexamethasone (DXM) at 100 nM was used as anti-inflammatory response control. At D0: preadipocytes have been treated in the following conditions: • “Undifferentiation”: DMEM+¼ RPMI medium • “Differentiation”: PAC+¼ RPMI medium • “AcMC” i.e. inflammatory condition: PAC+¼ AcMC • “AcMC+DXM”: PAC+[…] AcMC+anti-inflammatory DXM at 100 nM • “AcMc+compounds”: PAC+14 AcMC+compounds to be tested
One month after fixation of preadipocytes cultivated in pro-inflammatory environment, cells were incubated with 3% Bovine Serum Albumin (BSA) for 30 min in order to block the non-specific sites, then with primary antibody anti-collagen 1 (Novusbio, NB600-408) over-night. After washes with PBS, cells were incubated for 30 min with 3% BSA and then with the secondary antibodies (Goat anti-rabbit alexa-fluor 488, ThermoFisher, A11008) and DAPI (for nuclei staining) for 1 h. After several washes, the acquisition and the quantification were performed with a fluorescent video-microscope. Briefly, the quantification was based on the detection and quantification of cell nuclei stained with DAPI, and the detection of collagen 1 staining. Collagen 1 fibers were detected and measured for their length, thickness and intensity. A Collagen 1 fibers quantity was calculated (Quantity=length*thickness*fluorescence intensity) and normalized by cells number (DAPI staining).
Collagen I fibers (fibrillar collagen I) quantity was quantified and the data were normalized by cell number (DAPI staining, quantification of nuclei number). Data are represented in percentage of proinflammatory control conditions (AcMC condition).

[2] = test system: Normal human epidermal keratinocytes (NHEK); test: Total lipid neosynthesis in NHEK ([14C]-acetate incorporation); assay type: cell-based; conditions: 48 hours; for [14C]-Acetate (cpm): individual replicates
Method: Normal human epidermal keratinocytes (NHEK) were seeded in 12-well plates and incubated in culture medium for 24 hours. The medium was then replaced by culture medium containing or not (control) the test compounds or the reference (CaCl2+Vitamin C at 1.5 mM+200 μg/ml respectively) in the presence of the radioactive tracer [^14C]-acetate. Cells were incubated for 48 hours. All experimental conditions were performed in triplicate.
Culture medium was Keratinocyte-SFM supplemented with Epidermal Growth Factor (EGF) 0.25 ng/ml, Pituitary extract (PE) 25 μg/ml and Gentamycin 25 μg/ml. The assay medium was Keratinocyte-SFM supplemented with Gentamycin 25 μg/ml.
At the end of incubation, cells were rinsed with PBS solution and then detached from their support by trypsin treatment. The [^14C]-acetate incorporation was then measured by liquid scintillation (measure of radioactivity). The incorporation is correlated with the total lipid neosynthesis. Results presented in Table 23 are expressed as cpm and % of control.

[3] = test system: IL-6; test: IL-6 secretion in coculture of human aged fibroblasts and mature adipocytes (AM3D-FB2D, ELISA); assay type: cell-based; conditions: for secretion of IL-6 in percentage of the coculture control condition, Values (%): individual replicates
Excerpt: In order to evaluate its effect on fibroblast matrix and its anti-inflammatory properties, the effect of compound 6 has been tested on an adipocytes-aged fibroblasts coculture model, mimicking the interactions between dermis and hypodermis in the skin and allowed to explore in parallel the biological effects of the products on two cellular targets.
• Experimental model: co-culture of human mature adipocytes cultured in 3D and human dermal fibroblasts cultured in 2D (AM3D-FB2D co-culture). This experimental model of AM3D-FB2D co-culture mimicked the interactions between dermis and hypodermis in the skin and allowed to explore in parallel the biological effects of the products on two cellular targets. • Donor characteristics: This study was performed on mature adipocytes and fibroblasts from two different donors (one donor for mature adipocytes and another donor for dermal fibroblasts). • Fibroblasts donor=person, BMI=28 kg/m^2 • Adipocytes donor=person, BMI=21.4 kg/m^2 • Treatment procedure: compound 6 was added to the co-culture medium daily for up to 6 days
Dermal fibroblasts were seeded in DMEM 10% FBS at 10000 cells/well. The day after, the adipocytes capsules of 50 μl were added in suspension above the fibroblasts and the medium was changed and replaced by a specific culture medium for the co-culture AM3D-FB2D. The formation of adipocytes capsules followed an internal standardized protocol. Briefly, the fully mature adipocytes were isolated from the hypodermis after digestion by collagenase. The isolated adipocytes were then washed with a wash buffer and encapsulated in a peptidic hydrogel to form 3D adipocytes capsules of 50 μl in size. Cells were incubated at 37° C. and 5% CO2 overnight for stabilization. Treatments were initiated at DO with a medium change at DO, D2, D3 and D5. The entire culture media of 24 h incubation was collected at D3 and D6, before being centrifugated and stored at −80° C. Each culture condition was done in triplicate.
The biochemical analyses on culture media were performed via ELISA using specific kits according to the manufacturer's recommendations: IL-6 (Duoset DY206, R&D Systems), and Hyaluronic Acid (HA) (Duoset, DY3614-05, R&D Systems and Procollagen I (Duoset, DY6220-05, R&D Systems) The results of HA and Procollagen I were normalized by fibroblasts cell number regarding the fact that these molecules were secreted mainly by fibroblasts. All the biochemical results were represented in percentage of the control condition.
To evaluate the effect of the compound 6 on inflammation, the extracellular concentrations of IL-6, that is secreted by the fibroblasts but mainly by the adipocytes, were measured at D3 and D6.

N[C@H]1CCCN(CC(F)(F)[C@]2(O)O[C@H](CO)[C@H](O)[C@H](O)[C@H]2O)C1=O [Compound 6]
Collagen I fibers quantity, Mean (%) ([1]; 1 mg/ml): 154 % of AcMC condition
Collagen I fibers quantity, Values (%) ([1]; 1 mg/ml): 136.7 % of AcMC condition and 160.5 % of AcMC condition and 165.3 % of AcMC condition
Collagen I fibers quantity, Mean (%) ([1]; 2 mg/ml): 213 % of AcMC condition
Collagen I fibers quantity, Values (%) ([1]; 2 mg/ml): 193.5 % of AcMC condition and 230.7 % of AcMC condition and 213.7 % of AcMC condition
Collagen I fibers quantity compared to the AcMC control condition fixed at 100% ([1]; 1 mg/ml): 154%
Collagen I fibers quantity compared to the AcMC control condition fixed at 100% ([1]; 2 mg/ml): 213%
% Control (total lipid neosynthesis) ([2]; 1 mg/ml): 110%
% Stimulation (total lipid neosynthesis) ([2]; 1 mg/ml): 10%
[14C]-Acetate Mean (cpm) ([2]; 1 mg/ml): 78584 cpm
[14C]-Acetate (cpm) ([2]; 1 mg/ml): 77267 cpm and 78905 cpm and 79581 cpm
% Control (total lipid neosynthesis) ([2]; 3 mg/ml): 121%
% Stimulation (total lipid neosynthesis) ([2]; 3 mg/ml): 21%
[14C]-Acetate Mean (cpm) ([2]; 3 mg/ml): 86022 cpm
[14C]-Acetate (cpm) ([2]; 3 mg/ml): 84794 cpm and 87349 cpm and 85922 cpm and 86860 cpm
Stimulation of lipid synthesis compared to the control ([2]; 1 mg/ml): 10%
Stimulation of lipid synthesis compared to the control ([2]; 3 mg/ml): 21%
IL-6 secretion in percentage of the coculture control condition ([3]; 2 mg/ml, D3): 72%
IL-6 secretion in percentage of the coculture control condition ([3]; 2 mg/ml, D6): 53%
IL-6 secretion in percentage of the coculture control condition ([3]; 3 mg/ml, D3): 73%
IL-6 secretion in percentage of the coculture control condition ([3]; 3 mg/ml, D6): 61%
secretion of IL-6 in percentage of the coculture control condition, Mean (%) ([3]; D3, 2 mg/ml): 72%
secretion of IL-6 in percentage of the coculture control condition, Values (%) ([3]; D3, 2 mg/ml): 56% and 78% and 82%
secretion of IL-6 in percentage of the coculture control condition, Mean (%) ([3]; D3, 3 mg/ml): 73%
secretion of IL-6 in percentage of the coculture control condition, Values (%) ([3]; D3, 3 mg/ml): 75% and 63% and 79%
secretion of IL-6 in percentage of the coculture control condition, Mean (%) ([3]; D6, 2 mg/ml): 53%
secretion of IL-6 in percentage of the coculture control condition, Values (%) ([3]; D6, 2 mg/ml): 46% and 66% and 45%
secretion of IL-6 in percentage of the coculture control condition, Mean (%) ([3]; D6, 3 mg/ml): 61%
secretion of IL-6 in percentage of the coculture control condition, Values (%) ([3]; D6, 3 mg/ml): 59% and 54% and 71%
